The values that follow are results of earlier work, collected in patent US8673347B2 (Creabilis Therapeutics S.p.A., priority 2005, dated 2014).

For one data set, the target named is TrkA (Homo sapiens, UniProt P04629). The following applies: cited from earlier work.
In another data set the target is MLK3 (Homo sapiens, UniProt Q16584). Conditions: cited from earlier work.
Sequence of MLK3 (Q16584 whole entry, species assumed): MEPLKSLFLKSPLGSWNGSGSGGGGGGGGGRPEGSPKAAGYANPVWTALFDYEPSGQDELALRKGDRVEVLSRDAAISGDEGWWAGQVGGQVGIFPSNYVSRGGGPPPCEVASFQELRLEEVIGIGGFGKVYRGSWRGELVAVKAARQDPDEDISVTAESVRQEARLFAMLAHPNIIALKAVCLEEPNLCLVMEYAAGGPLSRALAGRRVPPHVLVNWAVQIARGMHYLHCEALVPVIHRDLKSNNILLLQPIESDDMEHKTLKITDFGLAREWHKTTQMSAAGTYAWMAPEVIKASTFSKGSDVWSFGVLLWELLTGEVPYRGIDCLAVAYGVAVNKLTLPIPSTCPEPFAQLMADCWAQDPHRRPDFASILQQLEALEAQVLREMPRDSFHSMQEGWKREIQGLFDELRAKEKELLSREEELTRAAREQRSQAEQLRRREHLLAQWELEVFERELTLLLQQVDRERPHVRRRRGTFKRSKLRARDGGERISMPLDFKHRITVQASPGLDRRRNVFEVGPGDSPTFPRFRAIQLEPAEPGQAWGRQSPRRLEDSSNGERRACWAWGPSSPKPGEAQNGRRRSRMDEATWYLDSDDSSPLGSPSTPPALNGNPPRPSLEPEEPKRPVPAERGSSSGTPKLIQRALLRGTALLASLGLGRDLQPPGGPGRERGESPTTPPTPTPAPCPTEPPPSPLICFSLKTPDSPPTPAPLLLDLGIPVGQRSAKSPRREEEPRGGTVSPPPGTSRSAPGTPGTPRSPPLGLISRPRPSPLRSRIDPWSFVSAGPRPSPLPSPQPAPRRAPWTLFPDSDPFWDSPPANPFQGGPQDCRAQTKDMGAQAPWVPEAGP

Sequence of TrkA (P04629 33-796, species assumed): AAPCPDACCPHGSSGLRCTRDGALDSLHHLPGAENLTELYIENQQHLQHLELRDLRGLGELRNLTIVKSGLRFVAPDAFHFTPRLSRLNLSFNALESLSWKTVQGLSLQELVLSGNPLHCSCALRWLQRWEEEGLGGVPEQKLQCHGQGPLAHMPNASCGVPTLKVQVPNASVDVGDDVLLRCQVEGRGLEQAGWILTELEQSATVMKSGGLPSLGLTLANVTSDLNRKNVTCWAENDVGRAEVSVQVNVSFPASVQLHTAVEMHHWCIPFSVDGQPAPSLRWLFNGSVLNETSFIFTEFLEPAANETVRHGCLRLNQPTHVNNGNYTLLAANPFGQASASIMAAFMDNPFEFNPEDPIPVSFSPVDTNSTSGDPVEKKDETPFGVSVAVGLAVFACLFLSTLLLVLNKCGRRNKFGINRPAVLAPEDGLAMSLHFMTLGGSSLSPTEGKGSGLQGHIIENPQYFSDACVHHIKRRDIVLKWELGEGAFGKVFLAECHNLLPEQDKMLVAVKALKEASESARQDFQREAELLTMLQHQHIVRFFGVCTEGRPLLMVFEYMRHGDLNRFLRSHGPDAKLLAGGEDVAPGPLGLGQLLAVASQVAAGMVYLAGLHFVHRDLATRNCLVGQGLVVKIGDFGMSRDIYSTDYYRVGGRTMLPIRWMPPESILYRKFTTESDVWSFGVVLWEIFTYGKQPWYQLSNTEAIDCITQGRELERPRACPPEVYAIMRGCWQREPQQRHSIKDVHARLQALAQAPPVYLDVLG

In the case of `CCSCc1ccc2c(c1)c1c3c(c4c5cc(CSCC)ccc5n5c4c1n2[C@H]1C[C@](O)(C(=O)OC)[C@]5(C)O1)CNC3=O` [CEP1347], on TrkA, the TrkA inhibition entry is recorded as “does not inhibit TrkA”. Moreover, on MLK3, the “inhibition of MAPKKKs, including MLK3” value was “directly inhibit”.
